Laboratory results as given in paper PMC7238976 (Phytochemistry, 2020).
Where two headings read alike, the source gives them in different places.

Key:
[1] = tested on: HIV; conditions: read-out: Anti-HIV IC50 (literature); ref Olivon, et al., 2017; cited from earlier work
[2] = Cytotoxicity toward MT4 cells; format: cell-based; conditions: human
[3] = tested on: HL4–3 virus; test: Anti-HIV-1 activity against HL4–3 virus in MT4 cells; format: cell-based
[4] = tested on: MT4 cells; test: Cytotoxicity toward MT4 cells; format: cell-based; conditions: read-out: Cytotoxicity CC50, means, n = 3
[5] = read-out: Anti-HIV-1 IC50, HL4–3 virus in MT4 cells, means, n = 3

Compound | CC50 [4] [nM] | IC50 [3, 5] [nM] | also measured
CCCCCCCCCCCCCCCC(=O)O[C@@]12C[C@@H](C)[C@@]3(O)[C@H]([C@@H]1C2(C)C)[C@H](O)[C@](O)(CO)[C@@H](O)[C@]1(O)C(=O)C(C)=C[C@H]13 [12-deoxy-5β-6β-7α-trihydroxy-phorbol-13-hexadecanoate] | – | – | IC50 [1]: 257 nM
CCCCCCCCCCCCCCCC(=O)O[C@@]12C[C@@H](C)[C@]3(O)[C@@H]4C=C(C)C(=O)[C@@]4(O)[C@H](O)C(CO)=C[C@H]3[C@@H]1C2(C)C [12-deoxy-5β-hydroxy-phorbol-13-hexadecanoate] | – | – | IC50 [1]: 2 nM
Cc1cn([C@H]2C[C@H](N=[N+]=[N-])[C@@H](CO)O2)c(=O)[nH]c1=O [AZT, zidovudine, reference compound] | – | – | CC50 [2]: > 370 nM; IC50 ([3]; Human immunodeficiency virus 1, MT4, read-out: Anti-HIV-1 IC50): 18.7 nM; Selectivity index SI ([3]; ratio of CC50 and anti-HIV IC50): > 20
CCCCCCCCCCCCCCCC(=O)O[C@@]12C[C@@H](C)[C@@]3(O)[C@@H](C=C(CO)C[C@]4(O)C(=O)C(C)=C[C@@H]34)[C@@H]1C2(C)C [Compound 7, 12-deoxyphorbol-13-hexadecanoate] | > 1700 | 2.3 | –
CCCCCCCCCCCCCC(=O)O[C@@]12C[C@@H](C)[C@@]3(O)[C@@H](C=C(CO)C[C@]4(O)C(=O)C(C)=C[C@@H]34)[C@@H]1C2(C)C [Compound 8, 12-deoxyphorbol-13-myristate] | > 1800 | 22 | –
Crotignoid L [Compound 1] | > 1800 | 220 | –
Crotignoid M [Compound 2] | > 1700 | 38 | –
Crotignoid N [Compound 3] | > 1600 | 310 | –
Crotignoid O [Compound 4] | > 1800 | 4030 | –
Crotignoid P [Compound 5] | > 1600 | 100 | –
Crotignoid Q [Compound 6] | > 1900 | > 1900 | Anti-HIV activity (in words) ([3]; HL4–3 virus in MT4 cells): did not show anti-HIV activity
